Assays:
[1] = tested on: MDA-MB-231 triple-negative breast cancer CDX; experiment: In-vivo drug efficacy study 1, MDA-MB-231 CDX model; design: species or system BALB/c nude mice
Experimental: (§1) The in-vivo drug efficacy experiments were carried out in BALB/c nude mice implanted subcutaneously with human tumor cell line-derived xenograft (CDX) derived from patients suffering from MDA-MB-231 triple-negative breast cancer.
(§2) BALB/c nude mice, female, 6 to 8 weeks old, weighing about 18 to 22 g, were kept in a special pathogen-free environment and in separated ventilated cages (3 mice per cage). All cages, bedding and water were disinfected before use. All animals had free access to standard certified commercial laboratory diets. A total of 48 mice purchased from Shanghai BK Laboratory Animal Co., LTD were used for the study. Each mouse was inoculated subcutaneously in the right flank with tumor cells (10×10^6 cells in 0.2 mL of a phosphate buffer) for tumor growth. The administration was initiated when the average tumor volume reached about 147 cubic millimeters. The test compounds were orally administered daily at a dose of 30 mg/kg. Tumor volumes were measured with a two-dimensional caliper every 3 days. The volume was measured in cubic millimeters and calculated by the following formula: V=0.5 a×b^2, where a and b were the long and short diameters of a tumor, respectively. Anti-tumor efficacy was determined by dividing the average increase in tumor volume of animals treated with a compound by the average increase in tumor volume of untreated animals.

MDA-MB-231 cells = experiment: In-vitro cell viability test (CellTiter-Glo, 7 days); format: cell-based; conditions: Homo sapiens, 168 h, 7 days incubation
Experimental: RPMI 1640 medium (Invitrogen-22400089); fetal bovine serum (Invitrogen-10099141); Trypsin, 0.05% (1×) with EDTA 4Na (Invitrogen-25300062); luminescent cell viability assay kit (Promega-G7573); Dulbecco's phosphate buffered saline (HyClone-SH30028.01B); and 384-well plate (Corning-6007680). Envision Multi-label Analyzer.
1. 30 μL of MDA-MB-231 cell suspension, which contained 250 MDA-MB-231 cells, was added into the wells of a 384-microwell plate.
2. 20 μL of a test compound (the test compounds were formulated at a high concentration of 10 μM, the test compounds were subjected to a 5-fold gradient dilution, and each compound was diluted to 10 concentration gradients) was added, and then the cell plate was put back into a carbon dioxide incubator to be incubated for 7 days.
3. The cell plate was kept flat at room temperature for 30 minutes.
4. 20 μL of a Promega CellTiter-Glo reagent was added into each well of the cell plate.
5. After 10 minutes, the Envision Multi-label Analyzer was used for data reading.

[2] = tested on: MDA-MB-231 triple-negative breast cancer CDX; experiment: In-vivo drug efficacy study 2, MDA-MB-231 CDX model; design: species or system BALB/c nude mice
Experimental: as §1
as §2, with “110” for “147”

CN[C@@H](C)C(=O)N[C@H](C(=O)N1CCC[C@H]1Cn1cc(C(C)=O)c2cc(Cl)ccc21)C1CCCCC1 [Example 2]
Tumor volume ([1]; Day 0, 30 mg/kg oral daily): 147 mm^3 | Tumor volume ([1]; Day 6, 30 mg/kg oral daily): 214 mm^3 | Tumor volume ([1]; Day 13, 30 mg/kg oral daily): 282 mm^3 | Tumor volume ([1]; Day 20, 30 mg/kg oral daily): 810 mm^3 | IC50 (MDA-MB-231 cells): 54.8 nM | Tumor volume ([2]; Day 0, 30 mg/kg oral daily): 110 mm^3 | Tumor volume ([2]; Day 5, 30 mg/kg oral daily): 111 mm^3 | Tumor volume ([2]; Day 12, 30 mg/kg oral daily): 86 mm^3 | Tumor volume ([2]; Day 20, 30 mg/kg oral daily): 177 mm^3
